Laboratory results reported in patent US8192962B2, “Processes for detecting toxic substances” (Daikin Industries, Ltd., priority 2001, dated 2012).

Tested on: Metabolism protein genes
Experiment: DNA chip mRNA expression in yeast, metabolism protein genes (Table 7)
Assay type: cell-based, Saccharomyces cerevisiae S288C
Outline: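 Value is the scanned fluorescence intensity ratio of exposed versus chemical-free cells. Log-phase S288C yeast in YPD at 25° C. received one toxic substance for two hours, dosed to slow growth without killing; Cy3/Cy5-labeled cDNA from oligo-dT-purified mRNA was hybridized to a whole-genome chip at 65° C.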

For “manganese ethylenebis(dithiocarbamate) [(8)]”, the “The level of expressed mRNA in the presence of chemical substance/The level of expressed mRNA in the absence of chemical substance” value (yeast gene YAL012W) was 0.7, the “The level of expressed mRNA in the presence of chemical substance/The level of expressed mRNA in the absence of chemical substance” value (yeast gene YAL038W) was 1.1 and the “level of expressed mRNA in the presence/in the absence of chemical substance” value (yeast gene YBR003W) was 0.9. The “level of expressed mRNA in the presence/in the absence of chemical substance” value (yeast gene YBR011C) was 1.3, the “level of expressed mRNA in the presence/in the absence of chemical substance” value (yeast gene YBR020W) was 1.0 and the “The level of expressed mRNA in the presence of chemical substance/The level of expressed mRNA in the absence of chemical substance” value (yeast gene YBR023C) was 0.5. The “The level of expressed mRNA in the presence of chemical substance/The level of expressed mRNA in the absence of chemical substance” value (yeast gene YBR029C) was 0.7, the “The level of expressed mRNA in the presence of chemical substance/The level of expressed mRNA in the absence of chemical substance” value (yeast gene YBR183W) was 1.0 and the “The level of expressed mRNA in the presence of chemical substance/The level of expressed mRNA in the absence of chemical substance” value (yeast gene YBR222C) was 0.6. For the same substance, the “The level of expressed mRNA in the presence of chemical substance/The level of expressed mRNA in the absence of chemical substance” value (yeast gene YBR256C) was 2.3, the “The level of expressed mRNA in the presence of chemical substance/The level of expressed mRNA in the absence of chemical substance” value (yeast gene YCL009C) was 1.1 and the “The level of expressed mRNA in the presence of chemical substance/The level of expressed mRNA in the absence of chemical substance” value (yeast gene YCL064C) was 2.4. For the same substance, the “level of expressed mRNA in the presence/in the absence of chemical substance” value (yeast gene YCR010C) was 0.8, the “level of expressed mRNA in the presence/in the absence of chemical substance” value (yeast gene YCR034W) was 0.9 and the “The level of expressed mRNA in the presence of chemical substance/The level of expressed mRNA in the absence of chemical substance” value (yeast gene YCR048W) was 0.8. For the same substance, the “The level of expressed mRNA in the presence of chemical substance/The level of expressed mRNA in the absence of chemical substance” value (yeast gene YCR098C) was 1.0, the “The level of expressed mRNA in the presence of chemical substance/The level of expressed mRNA in the absence of chemical substance” value (yeast gene YDR019C) was 0.7 and the “level of expressed mRNA in the presence/in the absence of chemical substance” value (yeast gene YDR050C) was 1.3. For the same substance, the “level of expressed mRNA in the presence/in the absence of chemical substance” value (yeast gene YDR073W) was 1.3, the “level of expressed mRNA in the presence/in the absence of chemical substance” value (yeast gene YDR123C) was 1.3 and the “level of expressed mRNA in the presence/in the absence of chemical substance” value (yeast gene YDR178W) was 0.9. For the same substance, the “level of expressed mRNA in the presence/in the absence of chemical substance” value (yeast gene YDR277C) was 1.7, the “level of expressed mRNA in the presence/in the absence of chemical substance” value (yeast gene YDR284C) was 0.9 and the “level of expressed mRNA in the presence/in the absence of chemical substance” value (yeast gene YDR345C) was 1.2. The “The level of expressed mRNA in the presence of chemical substance/The level of expressed mRNA in the absence of chemical substance” value (yeast gene YDR380W) was 0.2, the “level of expressed mRNA in the presence/in the absence of chemical substance” value (yeast gene YDR400W) was 1.4 and the “level of expressed mRNA in the presence/in the absence of chemical substance” value (yeast gene YDR408C) was 0.7. The “level of expressed mRNA in the presence/in the absence of chemical substance” value (yeast gene YDR483W) was 1.0, the “The level of expressed mRNA in the presence of chemical substance/The level of expressed mRNA in the absence of chemical substance” value (yeast gene YDR497C) was 0.6 and the “The level of expressed mRNA in the presence of chemical substance/The level of expressed mRNA in the absence of chemical substance” value (yeast gene YDR502C) was 0.9. The “The level of expressed mRNA in the presence of chemical substance/The level of expressed mRNA in the absence of chemical substance” value (yeast gene YDR516C) was 1.3, the “level of expressed mRNA in the presence/in the absence of chemical substance” value (yeast gene YEL063C) was 0.6 and the “level of expressed mRNA in the presence/in the absence of chemical substance” value (yeast gene YER015W) was 1.1. The “The level of expressed mRNA in the presence of chemical substance/The level of expressed mRNA in the absence of chemical substance” value (yeast gene YER026C) was 0.8, the “The level of expressed mRNA in the presence of chemical substance/The level of expressed mRNA in the absence of chemical substance” value (yeast gene YER053C) was 1.3 and the “The level of expressed mRNA in the presence of chemical substance/The level of expressed mRNA in the absence of chemical substance” value (yeast gene YER069W) was 1.5. For the same substance, the “level of expressed mRNA in the presence/in the absence of chemical substance” value (yeast gene YER081W) was 0.6, the “The level of expressed mRNA in the presence of chemical substance/The level of expressed mRNA in the absence of chemical substance” value (yeast gene YER096W) was 1.0 and the “level of expressed mRNA in the presence/in the absence of chemical substance” value (yeast gene YER120W) was 0.6. For the same substance, the “The level of expressed mRNA in the presence of chemical substance/The level of expressed mRNA in the absence of chemical substance” value (yeast gene YER178W) was 0.8, the “level of expressed mRNA in the presence/in the absence of chemical substance” value (yeast gene YFL011W) was 0.8 and the “The level of expressed mRNA in the presence of chemical substance/The level of expressed mRNA in the absence of chemical substance” value (yeast gene YFL014W) was 3.4. The “The level of expressed mRNA in the presence of chemical substance/The level of expressed mRNA in the absence of chemical substance” value (yeast gene YFL030W) was 1.6, the “The level of expressed mRNA in the presence of chemical substance/The level of expressed mRNA in the absence of chemical substance” value (yeast gene YFL031W) was 0.7 and the “The level of expressed mRNA in the presence of chemical substance/The level of expressed mRNA in the absence of chemical substance” value (yeast gene YFL056C) was 18.5. For the same substance, the “The level of expressed mRNA in the presence of chemical substance/The level of expressed mRNA in the absence of chemical substance” value (yeast gene YFL057C) was 18.0, the “The level of expressed mRNA in the presence of chemical substance/The level of expressed mRNA in the absence of chemical substance” value (yeast gene YFR047C) was 1.0 and the “level of expressed mRNA in the presence/in the absence of chemical substance” value (yeast gene YGL012W) was 0.8. The “The level of expressed mRNA in the presence of chemical substance/The level of expressed mRNA in the absence of chemical substance” value (yeast gene YGL022W) was 0.4, the “level of expressed mRNA in the presence/in the absence of chemical substance” value (yeast gene YGL115W) was 1.0 and the “The level of expressed mRNA in the presence of chemical substance/The level of expressed mRNA in the absence of chemical substance” value (yeast gene YGL126W) was 0.7. For the same substance, the “level of expressed mRNA in the presence/in the absence of chemical substance” value (yeast gene YGL205W) was 1.2, the “The level of expressed mRNA in the presence of chemical substance/The level of expressed mRNA in the absence of chemical substance” value (yeast gene YGL209W) was 1.1 and the “The level of expressed mRNA in the presence of chemical substance/The level of expressed mRNA in the absence of chemical substance” value (yeast gene YGL248W) was 0.8. The “The level of expressed mRNA in the presence of chemical substance/The level of expressed mRNA in the absence of chemical substance” value (yeast gene YGR037C) was 1.4, the “The level of expressed mRNA in the presence of chemical substance/The level of expressed mRNA in the absence of chemical substance” value (yeast gene YGR055W) was 1.1 and the “level of expressed mRNA in the presence/in the absence of chemical substance” value (yeast gene YGR096W) was 1.0. The “level of expressed mRNA in the presence/in the absence of chemical substance” value (yeast gene YGR191W) was 0.7, the “The level of expressed mRNA in the presence of chemical substance/The level of expressed mRNA in the absence of chemical substance” value (yeast gene YGR194C) was 1.2 and the “level of expressed mRNA in the presence/in the absence of chemical substance” value (yeast gene YGR204W) was 0.4. The “The level of expressed mRNA in the presence of chemical substance/The level of expressed mRNA in the absence of chemical substance” value (yeast gene YGR256W) was 2.2, the “The level of expressed mRNA in the presence of chemical substance/The level of expressed mRNA in the absence of chemical substance” value (yeast gene YGR282C) was 1.0 and the “level of expressed mRNA in the presence/in the absence of chemical substance” value (yeast gene YGR288W) was 1.0. The “level of expressed mRNA in the presence/in the absence of chemical substance” value (yeast gene YHR025W) was 0.8, the “The level of expressed mRNA in the presence of chemical substance/The level of expressed mRNA in the absence of chemical substance” value (yeast gene YHR111W) was 1.3 and the “level of expressed mRNA in the presence/in the absence of chemical substance” value (yeast gene YHR123W) was 0.8. For the same substance, the “The level of expressed mRNA in the presence of chemical substance/The level of expressed mRNA in the absence of chemical substance” value (yeast gene YHR137W) was 0.4, the “The level of expressed mRNA in the presence of chemical substance/The level of expressed mRNA in the absence of chemical substance” value (yeast gene YHR174W) was 1.2 and the “The level of expressed mRNA in the presence of chemical substance/The level of expressed mRNA in the absence of chemical substance” value (yeast gene YHR176W) was 1.3. For the same substance, the “level of expressed mRNA in the presence/in the absence of chemical substance” value (yeast gene YHR210C) was 1.3, the “level of expressed mRNA in the presence/in the absence of chemical substance” value (yeast gene YIL006W) was 0.6 and the “The level of expressed mRNA in the presence of chemical substance/The level of expressed mRNA in the absence of chemical substance” value (yeast gene YIL045W) was 1.1. The “The level of expressed mRNA in the presence of chemical substance/The level of expressed mRNA in the absence of chemical substance” value (yeast gene YIL107C) was 1.3, the “The level of expressed mRNA in the presence of chemical substance/The level of expressed mRNA in the absence of chemical substance” value (yeast gene YIL154C) was 0.6 and the “The level of expressed mRNA in the presence of chemical substance/The level of expressed mRNA in the absence of chemical substance” value (yeast gene YIL155C) was 1.0. For the same substance, the “The level of expressed mRNA in the presence of chemical substance/The level of expressed mRNA in the absence of chemical substance” value (yeast gene YIR034C) was 1.7, the “The level of expressed mRNA in the presence of chemical substance/The level of expressed mRNA in the absence of chemical substance” value (yeast gene YIR036C) was 1.0 and the “The level of expressed mRNA in the presence of chemical substance/The level of expressed mRNA in the absence of chemical substance” value (yeast gene YJL031C) was 1.8. For the same substance, the “The level of expressed mRNA in the presence of chemical substance/The level of expressed mRNA in the absence of chemical substance” value (yeast gene YJL068C) was 1.1, the “The level of expressed mRNA in the presence of chemical substance/The level of expressed mRNA in the absence of chemical substance” value (yeast gene YJL088W) was 1.3 and the “The level of expressed mRNA in the presence of chemical substance/The level of expressed mRNA in the absence of chemical substance” value (yeast gene YJL099W) was 1.0. For the same substance, the “level of expressed mRNA in the presence/in the absence of chemical substance” value (yeast gene YJL121C) was 1.0, the “level of expressed mRNA in the presence/in the absence of chemical substance” value (yeast gene YJL167W) was 1.5 and the “The level of expressed mRNA in the presence of chemical substance/The level of expressed mRNA in the absence of chemical substance” value (yeast gene YJL172W) was 0.7. The “level of expressed mRNA in the presence/in the absence of chemical substance” value (yeast gene YJL216C) was 1.9, the “The level of expressed mRNA in the presence of chemical substance/The level of expressed mRNA in the absence of chemical substance” value (yeast gene YJL219W) was 1.5 and the “level of expressed mRNA in the presence/in the absence of chemical substance” value (yeast gene YJR077C) was 0.8. The “The level of expressed mRNA in the presence of chemical substance/The level of expressed mRNA in the absence of chemical substance” value (yeast gene YJR137C) was 1.6, the “level of expressed mRNA in the presence/in the absence of chemical substance” value (yeast gene YJR143C) was 0.7 and the “The level of expressed mRNA in the presence of chemical substance/The level of expressed mRNA in the absence of chemical substance” value (yeast gene YJR148W) was 0.6.
